Read-outs that look alike come from different tables or passages of the source.
Key:
[1] = test system: Phakopsora pachyrhizi, strain with amino acid substitution F129L in the mitochondrial cytochrome b protein; experiment: Protective control of soybean rust on soybeans (PHAKPA P2); type: in vivo; conditions: for % PHAKPA (F129L) Disease level, P2 at 4 ppm: protective P2, 4 ppm; for % PHAKPA (F129L) Disease level, P2 at 4 ppm / % PHAKPA (F129L) Disease level, P2 at 16 ppm: soybean rust F129L strain; for % PHAKPA (F129L) Disease level, P2 at 16 ppm: protective P2, 16 ppm
[2] = test system: Phakopsora pachyrhizi, strain with amino acid substitution F129L in the mitochondrial cytochrome b protein; experiment: Protective control of soybean rust on soybeans (PHAKPA P6); type: in vivo; conditions: for % PHAKPA (F129L) Disease level, P6 at 4 ppm: protective P6, 4 ppm; for % PHAKPA (F129L) Disease level, P6 at 4 ppm / % PHAKPA (F129L) Disease level, P6 at 16 ppm: soybean rust F129L strain; for % PHAKPA (F129L) Disease level, P6 at 16 ppm: protective P6, 16 ppm
[3] = test system: Pyricularia oryzae; experiment: microbe, parasite or virus in culture; type: cell-based; conditions: Pyricularia oryzae, 168 h, read-out: Fungal growth (%) PYRIOR
[4] = test system: Septoria tritici; experiment: microbe, parasite or virus in culture; type: cell-based; conditions: Zymoseptoria tritici, 168 h, read-out: Fungal growth (%) SEPTTR
[5] = test system: Colletotrichum orbiculare; experiment: microbe, parasite or virus in culture; type: cell-based; conditions: 168 h, read-out: Fungal growth (%) COLLLA
[6] = test system: Alternaria solani, sensitive wild-type isolate (wt); experiment: microbe, parasite or virus in culture; type: cell-based; conditions: 168 h, read-out: Fungal growth (%) ALTESO wt
[7] = test system: Alternaria solani, Qo inhibitor-resistant isolate containing F129L in the mitochondrial cytochrome b protein; experiment: Micro titer plate test, activity against Alternaria solani causing early blight (ALTESO), F129L; type: cell-based; conditions: Alternaria solani, 168 h
[8] = test system: Phakopsora pachyrhizi, isolate sensitive to Qo inhibitors (wt); experiment: Protective control of soybean rust on detached soybean leaves (PHAKPA P1 DL), wt isolate; type: in vivo; conditions: Table C6a
[9] = test system: Phakopsora pachyrhizi, isolate with amino acid substitution F129L in the mitochondrial cytochrome b protein; experiment: Protective control of soybean rust on detached soybean leaves (PHAKPA P1 DL), F129L isolate; type: in vivo; conditions: Table C6b
[10] = test system: Microdochium nivale; experiment: microbe, parasite or virus in culture; type: cell-based; conditions: 168 h, read-out: Fungal growth (%) MONGNI

Q: For `CNC(=O)/C(=N/OC)c1cccc(C)c1CO/N=C(\C)c1cccc(C)c1` [Ex. 77], which “PHAKPA (F129L) Disease level (%) P2 at 4 ppm” value ([1]; P2 at 4 ppm, untreated 92%) is on record?
A: The value was 37%.

Q: What about the “% PHAKPA (F129L) Disease level, P2 at 4 ppm” value [1] of the same molecule?
A: Its value is 67%.

Q: And the “% PHAKPA (F129L) Disease level, P2 at 16 ppm” value [1]?
A: Its value is 4%.

Q: And the “PHAKPA (F129L) Disease level (%), P6 at 16 ppm” value ([2]; P6 at 16 ppm, untreated 75%)?
A: Its value is 20%.

Q: And the “% PHAKPA (F129L) Disease level, P6 at 4 ppm” value [2]?
A: Its value is 40%.

Q: And the “% PHAKPA (F129L) Disease level, P6 at 16 ppm” value [2]?
A: The value was 3%.

Q: What about the activity at 0.016 ppm [3] of the same molecule?
A: Its activity at 0.016 ppm is 20%.

Q: And the activity at 0.25 ppm [4]?
A: The activity at 0.25 ppm was 49%.

Q: And the activity at 0.063 ppm [5]?
A: The activity at 0.063 ppm was 39%.

Q: What about the activity at 0.016 ppm [6] of the same molecule?
A: The activity at 0.016 ppm was 73%.

Q: And the activity at 0.016 ppm ([7]; Table C14, read-out: Fungal growth (%) ALTESO F129L)?
A: The activity at 0.016 ppm was 69%.

Q: With `CNC(=O)/C(=N/OC)c1cccc(C)c1CO/N=C(\C)c1ccc(Cl)cc1` [Ex. 158] as the molecule, how does the “PHAKPA (F129L) Disease level (%) P2 at 4 ppm” value ([1]; Table C2, protective, inoculation 2 days after spraying, 4 ppm, % diseased leaf area on soybean, untreated 100) read?
A: Its value is 1%.

Q: And the “% PHAKPA (F129L) Disease level, P2 at 4 ppm” value [1]?
A: Its value is 0%.

Q: What about the “% PHAKPA (F129L) Disease level, P2 at 16 ppm” value [1] of the same molecule?
A: The value was 0%.

Q: And the “PHAKPA (F129L) Disease level (%) P6 at 4 ppm” value ([2]; Table C2, protective, inoculation six days after spraying, 4 ppm, % diseased leaf area on soybean, untreated 99)?
A: The value was 4%.

Q: What about the “% PHAKPA (F129L) Disease level, P6 at 4 ppm” value [2] of the same molecule?
A: Its value is 2%.

Q: What about the “% PHAKPA (F129L) Disease level, P6 at 16 ppm” value [2] of the same molecule?
A: The value was 0%.

Q: And the “PHAKPA P1 DL Disease level (%), Qo I-sensitive wt isolate (0% F129L)” value (“PHAKPA P1 DL Disease level (%) … (0% F129L)” below) ([8]; 0.3 ppm, 0 ppm control 93)?
A: The value was 38%.

Q: And the “PHAKPA P1 DL Disease level (%) … (0% F129L)” value ([8]; 1 ppm)?
A: Its value is 7%.

Q: And the “PHAKPA P1 DL Disease level (%) … (0% F129L)” value ([8]; 3 ppm)?
A: The value was 2%.

Q: What about the “PHAKPA P1 DL Disease level (%) … (0% F129L)” value ([8]; 10 ppm) of the same molecule?
A: The value was 1%.

Q: And the “PHAKPA P1 DL Disease level (%) … (0% F129L)” value ([8]; 30 ppm)?
A: Its value is 4%.

Q: And the “PHAKPA P1 DL Disease level (%) … (0% F129L)” value ([8]; 100 ppm)?
A: The value was 5%.

Q: What about the “PHAKPA P1 DL Disease level (%) … (0% F129L)” value ([8]; 300 ppm) of the same molecule?
A: The value was 4%.

Q: And the “PHAKPA P1 DL Disease level (%), Qo I-resistant F129L isolate (100% F129L)” value (“PHAKPA P1 DL Disease level (%) … (100% F129L)” for short) ([9]; 0.3 ppm, 0 ppm control 93)?
A: Its value is 87%.

Q: What about the “PHAKPA P1 DL Disease level (%) … (100% F129L)” value ([9]; 1 ppm) of the same molecule?
A: The value was 57%.

Q: And the “PHAKPA P1 DL Disease level (%) … (100% F129L)” value ([9]; 3 ppm)?
A: The value was 8%.

Q: And the “PHAKPA P1 DL Disease level (%) … (100% F129L)” value ([9]; 10 ppm)?
A: Its value is 2%.

Q: What about the “PHAKPA P1 DL Disease level (%) … (100% F129L)” value ([9]; 30 ppm) of the same molecule?
A: The value was 4%.

Q: And the “PHAKPA P1 DL Disease level (%) … (100% F129L)” value ([9]; 100 ppm)?
A: Its value is 4%.

Q: What about the “PHAKPA P1 DL Disease level (%) … (100% F129L)” value ([9]; 300 ppm) of the same molecule?
A: The value was 5%.

Q: And the activity at 0.016 ppm [3]?
A: Its activity at 0.016 ppm is 38%.

Q: What about the activity at 0.016 ppm [6] of the same molecule?
A: The activity at 0.016 ppm was 66%.

Q: What about the activity at 0.016 ppm ([7]; Table C5, read-out: Fungal growth (%) ALTESO F129L) of the same molecule?
A: Its activity at 0.016 ppm is 79%.

Q: And the activity at 0.016 ppm [10]?
A: The activity at 0.016 ppm was 71%.

From patent US20230172205A1 (priority 2020, published 2023)
